Where a name gives a salt, the structure may show the parent alone.
What was measured:
human factor XIa = molecular target: T1, human factor XIa (Homo sapiens, UniProt P03951); assay: Measurement of FXIa inhibition (fluorogenic peptide substrate Boc-Glu(OBzl)-Ala-Arg-AMC); type: biochemical; settings: factor XIa from Kordia, 15 min preincubation, 30 min at 22° C., fluorescence
T1 construct: purchased Kordia
Method: The factor XIa inhibition of the substances according to the invention is determined using a biochemical test system which utilizes the reaction of a peptidic factor XIa substrate to determine the enzymatic activity of human factor XIa. Here, factor XIa cleaves from the peptic factor XIa substrate the C-terminal aminomethylcoumarin (AMC), the fluorescence of which is measured. The determinations are carried out in microtitre plates.
Test substances are dissolved in dimethyl sulphoxide and serially diluted in dimethyl sulphoxide (3000 μM to 0.0078 μM; resulting final concentrations in the test: 50 μM to 0.00013 μM). In each case 1 μl of the diluted substance solutions is placed into the wells of white microtitre plates from Greiner (384 wells). Subsequently, the following are added successively: 20 μl of assay buffer (50 mmol/l Tris buffer pH 7.4; 100 mmol/l sodium chloride; 5 mmol/l calcium chloride; 0.1% bovine serum albumin) and 20 μl of factor XIa from Kordia (0.45 nM in assay buffer). After 15 min of incubation, the enzyme reaction is started by addition of 20 μl of the factor XIa substrate Boc-Glu(OBzl)-Ala-Arg-AMC dissolved in assay buffer (10 μM in assay buffer) from Bachem, the mixture is incubated at room temperature (22° C.) for 30 min and fluorescence is then measured (excitation: 360 nm, emission: 460 nm). The measured emissions of the test batches with test substance are compared to those of control batches without test substance (only dimethyl sulphoxide instead of test substance in dimethyl sulphoxide), and IC50 values are calculated from the concentration/activity relationships.

human and animal plasma = assay: Determination of anticoagulatory activity: activated partial thromboplastin time (aPTT) in plasma; type: biochemical; settings: concentration of test substance which brings about a 1.5-fold extension of the aPTT, 37° C., C.K. Prest kit
Method: The anticoagulatory activity of the test substances is determined in vitro in human and animal plasma (for example mouse, rat, rabbit, pig and dog plasma). To this end, blood is drawn off in a mixing ratio of sodium citrate/blood of 1:9 using a 0.11 molar sodium citrate solution as receiver. Immediately after the blood has been drawn off, it is mixed thoroughly and centrifuged at about 4000 g for 15 minutes. The supernatant is pipetted off.
The activated partial thromboplastin time (aPTT) is determined in the presence of varying concentrations of test substance or the corresponding solvent using a commercial test kit (C.K. Prest from Diagnostica Stago). The test compounds are incubated with the plasma and the PTT reagent (cephalin, kaolin) at 37° C. for 3 minutes. Coagulation is then started by addition of a 25 mM aqueous calcium chloride solution, and the time when coagulation occurs is determined. The concentration of test substance which brings about a 1.5-fold extension of the aPTT is determined Activity data from this test are listed in Table B below: […]

T1 sequence (P03951 388-625 limits assumed): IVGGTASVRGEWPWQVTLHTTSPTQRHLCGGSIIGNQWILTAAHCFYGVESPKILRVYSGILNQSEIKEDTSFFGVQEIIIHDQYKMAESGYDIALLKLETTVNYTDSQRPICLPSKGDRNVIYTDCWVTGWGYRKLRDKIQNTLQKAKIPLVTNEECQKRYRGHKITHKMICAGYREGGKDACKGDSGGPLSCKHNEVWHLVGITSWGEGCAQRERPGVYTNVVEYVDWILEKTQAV
T1 sequence (P03951 19-387 partner limits assumed): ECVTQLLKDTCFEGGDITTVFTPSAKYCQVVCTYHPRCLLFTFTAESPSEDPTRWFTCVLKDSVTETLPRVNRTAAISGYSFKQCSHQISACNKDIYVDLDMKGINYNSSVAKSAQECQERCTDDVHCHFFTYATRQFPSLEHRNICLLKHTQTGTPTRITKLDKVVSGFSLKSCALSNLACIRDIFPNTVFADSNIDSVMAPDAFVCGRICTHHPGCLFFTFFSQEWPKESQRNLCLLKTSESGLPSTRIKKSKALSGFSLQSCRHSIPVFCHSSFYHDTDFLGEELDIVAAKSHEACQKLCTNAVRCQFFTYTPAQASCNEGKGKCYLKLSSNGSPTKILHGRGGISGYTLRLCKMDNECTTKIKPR

Compound	IC50 (human factor XIa) [nM]	aPTT (human and animal plasma) [µmol/L]
NC[C@H]1CC[C@H](C(=O)N[C@@H](Cc2ccc(-c3cnc(N4CCOCC4)nc3)cc2)C(=O)Nc2ccc(-c3nnn[nH]3)cc2)CC1 [Example 1, N-alpha-{[trans-4-(Aminomethyl)cyclohexyl]carbonyl}-4-[2-(morpholin-4-yl)pyrimidin-5-yl]-N-[4-(1H-tetrazol-5-yl)phenyl]-L-phenylalaninamide hydrochloride]	5.7	
CN1CCN(S(=O)(=O)c2cncc(-c3ccc(C[C@H](NC(=O)[C@H]4CC[C@H](CN)CC4)C(=O)Nc4ccc(-c5nnn[nH]5)cc4)cc3)c2)CC1 [Example 2, N-alpha-{[trans-4-(Aminomethyl)cyclohexyl]carbonyl}-4-{5-[(4-methylpiperazin-1-yl)sulphonyl]pyridin-3-yl}-N-[4-(1H-tetrazol-5-yl)phenyl]-L-phenylalaninamide hydrochloride]	5.3	0.28
NC[C@H]1CC[C@H](C(=O)N[C@@H](Cc2ccc(-c3cccnc3Cl)cc2)C(=O)Nc2ccc(-c3nnn[nH]3)cc2)CC1 [Example 3, N-alpha-{[trans-4-(Aminomethyl)cyclohexyl]carbonyl}-4-(2-chloropyridin-3-yl)-N-[4-(1H-tetrazol-5-yl)phenyl]-L-phenylalaninamide hydrochloride]	2.3	0.24
CN(C)c1ccc(-c2ccc(C[C@H](NC(=O)[C@H]3CC[C@H](CN)CC3)C(=O)Nc3ccc(-c4nnn[nH]4)cc3)cc2)cn1 [Example 4, N-alpha-{[trans-4-(Aminomethyl)cyclohexyl]carbonyl}-4-[6-(dimethylamino)pyridin-3-yl]-N-[4-(1H-tetrazol-5-yl)phenyl]-L-phenylalaninamide hydrochloride]	3.8	0.23
NC[C@H]1CC[C@H](C(=O)N[C@@H](Cc2ccc(-c3cccnc3)cc2)C(=O)Nc2ccc(-c3nn[nH]n3)cc2)CC1 [Example 5, N-alpha-{[trans-4-(Aminomethyl)cyclohexyl]carbonyl}-4-pyridin-3-yl-N-[4-(2H-tetrazol-5-yl)phenyl]phenylalaninamide]	7	0.35
CN(C)CCCOc1ccc(-c2ccc(C[C@H](NC(=O)[C@H]3CC[C@H](CN)CC3)C(=O)Nc3ccc(-c4nn[nH]n4)cc3)cc2)cn1 [Example 6, N-alpha-{[trans-4-(Aminomethyl)cyclohexyl]carbonyl}-4-{6-[3-(dimethylamino)propoxy]pyridin-3-yl}-N-[4-(2H-tetrazol-5-yl)phenyl]-L-phenylalaninamide hydrochloride]	15	
NC[C@H]1CC[C@H](C(=O)N[C@@H](Cc2ccc(-c3ccc(N4CCOCC4)nc3)cc2)C(=O)Nc2ccc(-c3nn[nH]n3)cc2)CC1 [Example 7, N-alpha-{[trans-4-(Aminomethyl)cyclohexyl]carbonyl}-4-[6-(morpholin-4-yl)pyridin-3-yl]-N-[4-(2H-tetrazol-5-yl)phenyl]-L-phenylalaninamide hydrochloride]	2.2	0.29
NC[C@H]1CC[C@H](C(=O)N[C@@H](Cc2ccc(-c3ccncc3)cc2)C(=O)Nc2ccc(-c3noc(=O)[nH]3)cc2)CC1 [Example 8, N-alpha-{[trans-4-(Aminomethyl)cyclohexyl]carbonyl}-N-[4-(5-oxo-4,5-dihydro-1,2,4-oxadiazol-3-yl)phenyl]-4-pyridin-4-yl-L-phenylalaninamide hydrochloride]	9.2	0.15
NC[C@H]1CC[C@H](C(=O)N[C@@H](Cc2ccc(-c3cncc(Cl)c3)cc2)C(=O)Nc2ccc(-c3nn[nH]n3)cc2)CC1 [Example 10, N-alpha-{[trans-4-(Aminomethyl)cyclohexyl]carbonyl}-4-(5-chloropyridin-3-yl)-N-[4-(2H-tetrazol-5-yl)phenyl]-L-phenylalaninamide hydrochloride]	6.2	
NC[C@H]1CC[C@H](C(=O)N[C@@H](Cc2ccc(-c3ccncc3)cc2)C(=O)Nc2ccc(-c3nn[nH]n3)cc2)CC1 [Example 11, N-alpha-{[trans-4-(Aminomethyl)cyclohexyl]carbonyl}-4-pyridin-4-yl-N-[4-(2H-tetrazol-5-yl)phenyl]-L-phenylalaninamide hydrochloride]	5.2	0.24
NC[C@H]1CC[C@H](C(=O)N[C@@H](Cc2ccc(-c3cnccc3Cl)cc2)C(=O)Nc2ccc(-c3nn[nH]n3)cc2)CC1 [Example 12, N-alpha-{[trans-4-(Aminomethyl)cyclohexyl]carbonyl}-4-(4-chloropyridin-3-yl)-N-[4-(2H-tetrazol-5-yl)phenyl]-L-phenylalaninamide hydrochloride]	5.9	0.43
Cc1ncccc1-c1ccc(C[C@H](NC(=O)[C@H]2CC[C@H](CN)CC2)C(=O)Nc2ccc(-c3nn[nH]n3)cc2)cc1 [Example 13, N-alpha-{[trans-4-(Aminomethyl)cyclohexyl]carbonyl}-4-(2-methylpyridin-3-yl)-N-[4-(2H-tetrazol-5-yl)phenyl]-L-phenylalaninamide hydrochloride]	2.1	0.13
NC[C@H]1CC[C@H](C(=O)N[C@@H](Cc2ccc(-c3cccnc3)cc2)C(=O)Nc2ccc(-c3noc(=O)[nH]3)cc2)CC1 [Example 14, N-alpha-{[trans-4-(Aminomethyl)cyclohexyl]carbonyl}-N-[4-(5-oxo-4,5-dihydro-1,2,4-oxadiazol-3-yl)phenyl]-4-pyridin-3-yl-L-phenylalaninamide hydrochloride]	8.5	0.28
NC[C@H]1CC[C@H](C(=O)N[C@@H](Cc2ccc(-c3ccncc3Cl)cc2)C(=O)Nc2ccc(-c3nn[nH]n3)cc2)CC1 [Example 15, N-alpha-{[trans-4-(Aminomethyl)cyclohexyl]carbonyl}-4-(3-chloropyridin-4-yl)-N-[4-(2H-tetrazol-5-yl)phenyl]-L-phenylalaninamide hydrochloride]	2.8	0.14
NC[C@H]1CC[C@H](C(=O)N[C@@H](Cc2ccc(-c3ccc(NCCN4CCOCC4)nc3)cc2)C(=O)Nc2ccc(-c3nn[nH]n3)cc2)CC1 [Example 16, N-alpha-{[trans-4-(Aminomethyl)cyclohexyl]carbonyl}-4-(6-{[2-(morpholin-4-yl)ethyl]amino}pyridin-3-yl)-N-[4-(2H-tetrazol-5-yl)phenyl]-L-phenylalaninamide hydrochloride]	13	0.33
NC[C@H]1CC[C@H](C(=O)N[C@@H](Cc2ccc(-c3ccc(O)nc3)cc2)C(=O)Nc2ccc(-c3nn[nH]n3)cc2)CC1 [Example 17, N-alpha-{[trans-4-(Aminomethyl)cyclohexyl]carbonyl}-4-(6-hydroxypyridin-3-yl)-N-[4-(2H-tetrazol-5-yl)phenyl]-L-phenylalaninamide hydrochloride]	10	
COc1ccc(-c2ccc(C[C@H](NC(=O)[C@H]3CC[C@H](CN)CC3)C(=O)Nc3ccc4cn[nH]c4c3)cc2)c(C)n1 [Example 28, N-alpha-{[trans-4-(Aminomethyl)cyclohexyl]carbonyl}-N-1H-indazol-6-yl-4-(6-methoxy-2-methylpyridin-3-yl)-L-phenylalaninamide hydrochloride]	7.8	
NC[C@H]1CC[C@H](C(=O)N[C@@H](Cc2ccc(-c3ccnc(N4CCOCC4)c3)cc2)C(=O)Nc2ccc3c(=O)[nH][nH]c3c2)CC1 [Example 36, N-alpha-{[trans-4-(Aminomethyl)cyclohexyl]carbonyl}-4-[2-(morpholin-4-yl)pyridin-4-yl]-N-(3-oxo-2,3-dihydro-1H-indazol-6-yl)-L-phenylalaninamide hydrochloride]	7.2	
COc1ccc(-c2ccc(C[C@H](NC(=O)[C@H]3CC[C@H](CN)CC3)C(=O)Nc3ccc(-c4nn[nH]n4)cc3)cc2)cn1 [Example 38, N-alpha-{[trans-4-(Aminomethyl)cyclohexyl]carbonyl}-4-(6-methoxypyridin-3-yl)-N-[4-(2H-tetrazol-5-yl)phenyl]-L-phenylalaninamide]	4.8	
CCOc1ncccc1-c1ccc(C[C@H](NC(=O)[C@H]2CC[C@H](CN)CC2)C(=O)Nc2ccc(-c3nn[nH]n3)cc2)cc1 [Example 42, N-alpha-{[trans-4-(Aminomethyl)cyclohexyl]carbonyl}-4-(2-ethoxypyridin-3-yl)-N-[4-(2H-tetrazol-5-yl)phenyl]-L-phenylalaninamide hydrochloride]	3	

Source: patent US20160280699A1, “SUBSTITUTED PHENYLALANINE DERIVATIVES” (BAYER PHARMA AKTIENGESELLSCHAFT, priority 2013, published 2016)
